Results: PubChem BioAssay AID248 (DTP/NCI, 2004)
Where “and” joins values, the source holds several entries; their conditions need not be identical. Equal values may be shown once. Toxic doses and inconclusive results are not listed.

Tested on: L1210 leukemia ip in BDF1 mice, survival T/C
Experiment: NCI In Vivo Anticancer Drug Screen. Data for tumor model L1210 Leukemia (intraperitoneal) in B6D2F1 (BDF1) mice
Conditions: endpoint: mean survival time, higher = longer survival
Procedure, shortened: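 Transplantable tumor model; survival measured in treated vs vehicle control mice. Value = treated/control.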

[1] = dose: 100.0 mg/kg/injection, schedule: Q04DX003 (ip), vehicle: saline
[2] = dose: 200.0 mg/kg/injection, schedule: Q04DX003 (ip), vehicle: saline
[3] = dose: 400.0 mg/kg/injection, schedule: Q04DX003 (ip), vehicle: saline

SMILES: C=CC(CN1CC1)OC(C)=O (configuration not stated)
- T/C (dose: 0.25 mg/kg/injection, schedule: Q03DX Z (ip), vehicle: saline): 104 % of control
- T/C (dose: 0.5 mg/kg/injection, schedule: Q01DX010 (oral), vehicle: saline): 120 % of control
- T/C (dose: 0.5 mg/kg/injection, schedule: Q03DX Z (ip), vehicle: saline): 98 % of control
- T/C (dose: 0.95 mg/kg/injection, schedule: Q01DX Z (ip), vehicle: olive oil, sesame oil, peanut oil): 105 % of control
- T/C (dose: 0.95 mg/kg/injection, schedule: Q01DX Z (oral), vehicle: olive oil, sesame oil, peanut oil): 100 % of control
- T/C (dose: 1.0 mg/kg/injection, schedule: Q03DX Z (ip), vehicle: saline): 106 % of control
- T/C (dose: 1.0 mg/kg/injection, schedule: Q07DX Z (ip), vehicle: saline): 105 % of control
- T/C (dose: 1.2 mg/kg/injection, schedule: Q01DX Z (ip), vehicle: carboxymethylcellulose (CMC)): 104 % of control
- T/C (dose: 1.24 mg/kg/injection, schedule: Q01DX Z (ip), vehicle: carboxymethylcellulose (CMC)): 109 % of control
- T/C (dose: 1.3 mg/kg/injection, schedule: Q#A X Z (ip), vehicle: other): 112 % of control
- T/C (dose: 1.8 mg/kg/injection, schedule: Q01DX Z (ip), vehicle: carboxymethylcellulose (CMC)): 93 % of control and 98 % of control
- T/C (dose: 1.8 mg/kg/injection, schedule: Q01DX Z (oral), vehicle: carboxymethylcellulose (CMC)): 102 % of control
- T/C (dose: 1.9 mg/kg/injection, schedule: Q01DX Z (ip), vehicle: olive oil, sesame oil, peanut oil): 116 % of control
- T/C (dose: 1.9 mg/kg/injection, schedule: Q01DX Z (oral), vehicle: olive oil, sesame oil, peanut oil): 103 % of control
- T/C (dose: 1.9 mg/kg/injection, schedule: Q01DX Z (oral), vehicle: other): 102 % of control
- T/C (dose: 2.0 mg/kg/injection, schedule: Q01DX006 (iv), vehicle: saline): 100 % of control
- T/C (dose: 2.0 mg/kg/injection, schedule: Q01DX010 (oral), vehicle: saline): 100 % of control
- T/C (dose: 2.0 mg/kg/injection, schedule: Q02DX004 (im), vehicle: saline): 116 % of control
- T/C (dose: 2.0 mg/kg/injection, schedule: Q07DX Z (ip), vehicle: saline): 95 % of control
- T/C (dose: 2.48 mg/kg/injection, schedule: Q01DX Z (ip), vehicle: carboxymethylcellulose (CMC)): 109 % of control
- T/C (dose: 2.5 mg/kg/injection, schedule: Q01DX Z (oral), vehicle: saline): 121 % of control
- T/C (dose: 2.6 mg/kg/injection, schedule: Q01DX Z (ip), vehicle: other): 117 % of control
- T/C (dose: 2.6 mg/kg/injection, schedule: Q01DX Z (sc), vehicle: other): 119 % of control
- T/C (dose: 2.7 mg/kg/injection, schedule: Q01DX Z (ip), vehicle: carboxymethylcellulose (CMC)): 118 % of control
- T/C (dose: 3.25 mg/kg/injection, schedule: Q01DX Z (ip), vehicle: saline): 151 % of control
- T/C (dose: 3.25 mg/kg/injection, schedule: Q01DX Z (oral), vehicle: saline): 161 % of control
- T/C (dose: 3.7 mg/kg/injection, schedule: Q01DX Z (ip), vehicle: carboxymethylcellulose (CMC)): 93 % of control
- T/C (dose: 3.7 mg/kg/injection, schedule: Q01DX Z (oral), vehicle: carboxymethylcellulose (CMC)): 101 % of control and 90 % of control
- T/C (dose: 3.75 mg/kg/injection, schedule: Q01DX Z (ip), vehicle: olive oil, sesame oil, peanut oil): 122 % of control
- T/C (dose: 3.75 mg/kg/injection, schedule: Q01DX Z (oral), vehicle: olive oil, sesame oil, peanut oil): 105 % of control
- T/C (dose: 3.8 mg/kg/injection, schedule: Q01DX Z (ip), vehicle: olive oil, sesame oil, peanut oil): 90 % of control
- T/C (dose: 3.8 mg/kg/injection, schedule: Q01DX Z (oral), vehicle: other): 120 % of control
- T/C (dose: 4.0 mg/kg/injection, schedule: Q01DX006 (iv), vehicle: saline): 108 % of control
- T/C (dose: 4.0 mg/kg/injection, schedule: Q01DX Z (sc), vehicle: other): 122 % of control
- T/C (dose: 4.0 mg/kg/injection, schedule: Q02DX004 (im), vehicle: saline): 120 % of control
- T/C (dose: 4.0 mg/kg/injection, schedule: Q07DX Z (ip), vehicle: saline): 115 % of control
- T/C (dose: 4.5 mg/kg/injection, schedule: Q#A X Z (ip), vehicle: other): 102 % of control
- T/C (dose: 7.5 mg/kg/injection, schedule: Q01DX009 (ip), vehicle: saline): 191 % of control
- T/C (dose: 7.5 mg/kg/injection, schedule: Q01DX Z (ip), vehicle: carboxymethylcellulose (CMC)): 104 % of control
- T/C (dose: 7.5 mg/kg/injection, schedule: Q01DX Z (ip), vehicle: saline): 259 % of control
- T/C (dose: 7.5 mg/kg/injection, schedule: Q01DX Z (oral), vehicle: carboxymethylcellulose (CMC)): 93 % of control and 96 % of control
- T/C (dose: 7.5 mg/kg/injection, schedule: Q01DX Z (oral), vehicle: olive oil, sesame oil, peanut oil): 111 % of control
- T/C (dose: 7.5 mg/kg/injection, schedule: Q01DX Z (oral), vehicle: saline): 150 % of control
- T/C (dose: 7.6 mg/kg/injection, schedule: Q01DX Z (oral), vehicle: olive oil, sesame oil, peanut oil): 150 % of control
- T/C (dose: 7.6 mg/kg/injection, schedule: Q01DX Z (oral), vehicle: other): 88 % of control
- T/C (dose: 8.0 mg/kg/injection, schedule: Q03DX Z (ip), vehicle: other): 153 % of control
- T/C (dose: 8.0 mg/kg/injection, schedule: Q07DX Z (ip), vehicle: saline): 121 % of control
- T/C (dose: 9.0 mg/kg/injection, schedule: Q01DX Z (ip), vehicle: other): 100 % of control
- T/C (dose: 10.0 mg/kg/injection, schedule: Q01DX Z (oral), vehicle: saline): 169 % of control
- T/C (dose: 11.0 mg/kg/injection, schedule: Q01DX001 (ip), vehicle: saline): 109 % of control and 118 % of control
- T/C (dose: 12.0 mg/kg/injection, schedule: Q03DX Z (ip), vehicle: other): 159 % of control
- T/C (dose: 14.85 mg/kg/injection, schedule: Q01DX Z (ip), vehicle: carboxymethylcellulose (CMC)): 96 % of control
- T/C (dose: 15.0 mg/kg/injection, schedule: Q01DX009 (ip), vehicle: saline): 107 % of control
- T/C (dose: 15.0 mg/kg/injection, schedule: Q01DX Z (ip), vehicle: carboxymethylcellulose (CMC)): 120 % of control
- T/C (dose: 15.0 mg/kg/injection, schedule: Q01DX Z (ip), vehicle: saline): 111 % of control
- T/C (dose: 15.0 mg/kg/injection, schedule: Q01DX Z (oral), vehicle: carboxymethylcellulose (CMC)): 102 % of control and 117 % of control
- T/C (dose: 15.0 mg/kg/injection, schedule: Q01DX Z (oral), vehicle: saline): 108 % of control
- T/C (dose: 15.1 mg/kg/injection, schedule: Q01DX Z (oral), vehicle: olive oil, sesame oil, peanut oil): 104 % of control
- T/C (dose: 15.1 mg/kg/injection, schedule: Q01DX Z (oral), vehicle: other): 96 % of control
- T/C (dose: 16.0 mg/kg/injection, schedule: Q02DX004 (im), vehicle: saline): 189 % of control
- T/C (dose: 17.0 mg/kg/injection, schedule: Q01DX001 (ip), vehicle: saline): 116 % of control
- T/C (dose: 18.0 mg/kg/injection, schedule: Q03DX Z (ip), vehicle: other): 112 % of control
- T/C (dose: 18.0 mg/kg/injection, schedule: Q07DX Z (ip), vehicle: other): 175 % of control
- T/C (dose: 19.8 mg/kg/injection, schedule: Q01DX Z (ip), vehicle: carboxymethylcellulose (CMC)): 96 % of control
- T/C (dose: 20.0 mg/kg/injection, schedule: Q01DX Z (oral), vehicle: saline): 106 % of control
- T/C (dose: 25.0 mg/kg/injection, schedule: Q01DX001 (ip), vehicle: saline): 153 % of control
- T/C (dose: 27.0 mg/kg/injection, schedule: Q03DX Z (ip), vehicle: other): 89 % of control
- T/C (dose: 28.0 mg/kg/injection, schedule: Q07DX Z (ip), vehicle: other): 158 % of control
- T/C (dose: 30.0 mg/kg/injection, schedule: Q01DX Z (ip), vehicle: saline): 105 % of control
- T/C (dose: 30.0 mg/kg/injection, schedule: Q01DX Z (oral), vehicle: carboxymethylcellulose (CMC)): 101 % of control and 113 % of control
- T/C (dose: 30.0 mg/kg/injection, schedule: Q01DX Z (oral), vehicle: saline): 111 % of control and 88 % of control
- T/C (dose: 32.0 mg/kg/injection, schedule: Q02DX004 (im), vehicle: saline): 97 % of control
- T/C (dose: 32.0 mg/kg/injection, schedule: Q07DX Z (ip), vehicle: saline): 210 % of control
- T/C (dose: 50.0 mg/kg/injection, schedule: Q01DX001 (ip), vehicle: saline): 94 % of control
- T/C (dose: 60.0 mg/kg/injection, schedule: Q01DX Z (ip), vehicle: saline): 116 % of control
- T/C (dose: 60.0 mg/kg/injection, schedule: Q01DX Z (oral), vehicle: saline): 113 % of control

SMILES: O=C1CC(N2C(=O)C3C4C=CC(CC4)C3C2=O)C(=O)N1 (configuration not stated)
- T/C [1]: 97 % of control
- T/C [2]: 97 % of control
- T/C [3]: 97 % of control

SMILES: C=CCON(C)c1ccccc1
- T/C [1]: 94 % of control
- T/C [2]: 108 % of control
- T/C [3]: 96 % of control
